In publication PMC7361110 (Antiviral Research, 2020):
Like-named read-outs stand apart in the source and are kept apart here.

Test system: SARS-CoV-2
Type: cell-based, SARS-CoV-2 (BetaCoV/France/IDF0571/2020 strain)
Details: for antiviral activity against SARS-CoV-2 (in words): single drug

| SMILES | antiviral activity against SARS-CoV-2 (in words) | IC50 | reduction of remdesivir IC50 (in presence of 12.5 μM berberine versus remdesivir alone) | reduction of remdesivir IC50 (in presence of diltiazem (11.5 μM) versus remdesivir alone) |
| --- | --- | --- | --- | --- |
| NC(=O)c1ncn([C@@H]2O[C@H](CO)[C@@H](O)[C@H]2O)n1 [Ribavirin, 1-β-D-ribofuranosyl-1,2,4-triazole-3-carboxamide] | neither diltiazem nor ribavirin or favipiravir showed antiviral activity | – | – | – |
| COc1ccc([C@@H]2Sc3ccccc3N(CCN(C)C)C(=O)[C@@H]2OC(C)=O)cc1 [Diltiazem] | neither diltiazem nor ribavirin or favipiravir showed antiviral activity | – | – | – |
| NC(=O)c1nc(F)c[nH]c1=O [Favipiravir, 6-fluoro-3-hydroxy-2-pyrazinecarboxamine] | neither diltiazem nor ribavirin or favipiravir showed antiviral activity | – | – | – |
| CCOC(=O)c1c(CSc2ccccc2)n(C)c2cc(Br)c(O)c(CN(C)C)c12 [Arbidol (umifenovir)] | – | 3.54 µM | – | – |
| Cc1cccc(C)c1OCC(=O)N[C@@H](Cc1ccccc1)[C@@H](O)C[C@H](Cc1ccccc1)NC(=O)[C@H](C(C)C)N1CCCNC1=O [Lopinavir] | – | 5.25 µM | – | – |
| CCC(CC)COC(=O)[C@H](C)N[P@](=O)(OC[C@H]1O[C@@](C#N)(c2ccc3c(N)ncnn23)[C@H](O)[C@@H]1O)Oc1ccccc1 [Remdesivir] | – | 0.987 µM | > 2 fold | up to 8.5 fold |
| COc1ccc2cc3[n+](cc2c1OC)CCc1cc2c(cc1-3)OCO2 [Berberine] | dose-dependent antiviral responses | 10.6 µM | – | – |
